Measurements: ChEMBL document CHEMBL2321855, “Synthesis, molecular modeling and evaluation of novel N'-2-(4-benzylpiperidin-/piperazin-1-yl)acylhydrazone derivatives as dual inhibitors for cholinesterases and Aβ aggregation” (Bioorg Med Chem Lett, 2013)

Tests used:
[1] = target: Amyloid-beta precursor protein (Homo sapiens) (UniProt P05067); test: Inhibition of amyloid beta (1 to 42) (unknown origin) aggregation at 100 uM by thioflavin-T fluorescence method relative to rifampicin
[2] = target: Amyloid-beta precursor protein (Homo sapiens) (UniProt P05067); test: Inhibition of amyloid beta (1 to 40_1 to 42) (unknown origin) aggregation at 100 uM by thioflavin-T fluorescence method relative to rifampicin
Cholinesterase [3] = target: T1, Cholinesterase (Equus caballus, UniProt P81908); test: Inhibition of equine BuChE measured for 1 min by Ellman's method
Acetylcholinesterase = Acetylcholinesterase (Homo sapiens, UniProt P22303); test: Inhibition of human recombinant AChE measured for 1 min by Ellman's method
[4] = target: Amyloid-beta precursor protein (Homo sapiens) (UniProt P05067); test: Inhibition of amyloid beta (1 to 40) (unknown origin) aggregation at 100 uM by thioflavin-T fluorescence method relative to rifampicin
Cholinesterase [5] = target: T1, Cholinesterase; test: Competitive inhibition of equine BuChE by Lineweaver-Burk plot analysis
Cholinesterase [6] = target: T1, Cholinesterase; test: Mixed type inhibition of equine BuChE by Lineweaver-Burk plot analysis

T1 sequence (P81908 whole entry): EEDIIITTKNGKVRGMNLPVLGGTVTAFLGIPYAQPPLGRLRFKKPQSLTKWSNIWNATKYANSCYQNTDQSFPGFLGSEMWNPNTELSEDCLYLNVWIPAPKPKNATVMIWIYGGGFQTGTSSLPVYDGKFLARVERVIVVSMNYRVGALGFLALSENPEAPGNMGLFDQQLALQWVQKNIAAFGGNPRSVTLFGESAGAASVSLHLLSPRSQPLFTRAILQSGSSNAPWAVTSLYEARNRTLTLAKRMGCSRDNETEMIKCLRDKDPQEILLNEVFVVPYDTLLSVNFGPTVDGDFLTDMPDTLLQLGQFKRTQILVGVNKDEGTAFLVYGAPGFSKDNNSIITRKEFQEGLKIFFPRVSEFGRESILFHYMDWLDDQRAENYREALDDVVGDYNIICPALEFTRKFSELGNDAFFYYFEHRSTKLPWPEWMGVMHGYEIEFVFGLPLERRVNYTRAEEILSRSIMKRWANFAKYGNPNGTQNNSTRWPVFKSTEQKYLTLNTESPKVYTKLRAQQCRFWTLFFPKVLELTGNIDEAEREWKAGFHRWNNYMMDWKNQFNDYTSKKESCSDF
Acetylcholinesterase, sequence (P22303 whole entry): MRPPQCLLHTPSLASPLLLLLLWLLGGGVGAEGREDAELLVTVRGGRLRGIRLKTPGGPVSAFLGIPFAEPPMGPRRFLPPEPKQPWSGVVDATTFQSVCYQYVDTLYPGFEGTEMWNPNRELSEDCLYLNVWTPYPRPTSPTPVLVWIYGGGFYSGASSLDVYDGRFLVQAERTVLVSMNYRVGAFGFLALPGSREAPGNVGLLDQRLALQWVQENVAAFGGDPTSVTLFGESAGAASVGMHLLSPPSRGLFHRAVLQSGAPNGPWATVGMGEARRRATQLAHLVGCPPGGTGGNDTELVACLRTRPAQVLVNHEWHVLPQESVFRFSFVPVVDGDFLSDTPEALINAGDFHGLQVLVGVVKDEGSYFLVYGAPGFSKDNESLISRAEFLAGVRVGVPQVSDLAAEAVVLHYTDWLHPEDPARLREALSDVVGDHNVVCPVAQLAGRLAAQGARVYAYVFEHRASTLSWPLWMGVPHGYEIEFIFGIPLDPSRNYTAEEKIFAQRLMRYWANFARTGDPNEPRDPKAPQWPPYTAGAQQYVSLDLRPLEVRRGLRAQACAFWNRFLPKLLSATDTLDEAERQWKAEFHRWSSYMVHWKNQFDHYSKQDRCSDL
Amyloid-beta precursor protein (Homo sapiens), sequence (P05067 whole entry): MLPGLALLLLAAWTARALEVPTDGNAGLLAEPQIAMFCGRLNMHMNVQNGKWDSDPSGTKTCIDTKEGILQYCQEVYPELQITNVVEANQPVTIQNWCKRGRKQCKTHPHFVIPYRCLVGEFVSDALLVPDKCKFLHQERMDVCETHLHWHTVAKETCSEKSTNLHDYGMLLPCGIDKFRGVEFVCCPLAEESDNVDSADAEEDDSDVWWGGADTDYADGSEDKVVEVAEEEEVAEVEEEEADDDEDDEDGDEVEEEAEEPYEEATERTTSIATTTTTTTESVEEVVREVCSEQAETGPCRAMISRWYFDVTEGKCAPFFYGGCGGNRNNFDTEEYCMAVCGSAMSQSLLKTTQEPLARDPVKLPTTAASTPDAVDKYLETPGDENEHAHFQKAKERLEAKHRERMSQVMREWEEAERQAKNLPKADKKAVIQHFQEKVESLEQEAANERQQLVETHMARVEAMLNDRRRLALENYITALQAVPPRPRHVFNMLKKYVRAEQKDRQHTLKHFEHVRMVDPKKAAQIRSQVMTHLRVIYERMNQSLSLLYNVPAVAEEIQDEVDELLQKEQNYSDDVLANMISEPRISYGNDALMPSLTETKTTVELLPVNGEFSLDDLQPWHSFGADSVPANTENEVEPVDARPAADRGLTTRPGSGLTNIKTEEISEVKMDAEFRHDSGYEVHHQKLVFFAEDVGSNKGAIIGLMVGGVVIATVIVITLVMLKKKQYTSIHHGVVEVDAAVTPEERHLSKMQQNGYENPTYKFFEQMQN

Row | Structure (SMILES) | inhibition [1] [%] | inhibition [2] [%] | IC50 (Cholinesterase [3]) [µM] | IC50 (Acetylcholinesterase) [µM] | inhibition [4] [%] | Ki (Cholinesterase [5]) [µM] | Ki (Cholinesterase [6]) [µM]
1 | CCOc1ccc(/C=N/NC(=O)CN2CCN(Cc3ccccc3)CC2)cc1 | 69 | 69 | 98.8 | 81.4 | 69 |  | 
2 | CCOc1ccc(/C=N/NC(=O)CN2CCC(Cc3ccccc3)CC2)cc1 | 69 | 69 | 67.3 |  | 69 | 31.5 | 
3 | COc1ccc(/C=N/NC(=O)CN2CCC(Cc3ccccc3)CC2)cc1 | 69 | 69 | 48.8 |  | 69 |  | 30.5
4 | COc1ccc(/C=N/NC(=O)CN2CCC(Cc3ccccc3)CC2)cc1OC | 69 | 69 | 55.1 | 62.8 | 69 |  | 
5 | COc1ccc(/C=N/NC(=O)CN2CCN(Cc3ccccc3)CC2)cc1OC | 69 | 69 | 71.7 | 81.1 | 69 |  | 
6 | COc1ccc(/C=N/NC(=O)CN2CCN(Cc3ccccc3)CC2)cc1 | 69 | 69 | 88.3 | 88.5 | 69 |  | 
